Results reported in patent US20140294856A1, “COMBINATION TREATMENT COMPRISING A HDAC6 INHIBITOR AND AN AKT INHIBITOR” (priority 2011, published 2014).
Values after ≈ are worked out from the molar mass of the structure shown. Where two headings read alike, the source gives them in different places.

Legend:
HDAC6 = HDAC6 (Homo sapiens, UniProt Q9UBN7); test: Enzyme inhibition activity, Fluor-de-Lys kit; format: biochemical
From the text: FIG. 20 (Table 1): Enzyme inhibition activity using HeLa nuclear extract and the Fluor-de-Lys kit.
(§1) HSP90 protein expression was not altered (FIG. 2).

HDAC1 = HDAC1 (Homo sapiens, UniProt Q13547); test: Enzyme inhibition activity, Fluor-de-Lys kit; format: biochemical
HDAC1, sequence (Q13547 whole entry): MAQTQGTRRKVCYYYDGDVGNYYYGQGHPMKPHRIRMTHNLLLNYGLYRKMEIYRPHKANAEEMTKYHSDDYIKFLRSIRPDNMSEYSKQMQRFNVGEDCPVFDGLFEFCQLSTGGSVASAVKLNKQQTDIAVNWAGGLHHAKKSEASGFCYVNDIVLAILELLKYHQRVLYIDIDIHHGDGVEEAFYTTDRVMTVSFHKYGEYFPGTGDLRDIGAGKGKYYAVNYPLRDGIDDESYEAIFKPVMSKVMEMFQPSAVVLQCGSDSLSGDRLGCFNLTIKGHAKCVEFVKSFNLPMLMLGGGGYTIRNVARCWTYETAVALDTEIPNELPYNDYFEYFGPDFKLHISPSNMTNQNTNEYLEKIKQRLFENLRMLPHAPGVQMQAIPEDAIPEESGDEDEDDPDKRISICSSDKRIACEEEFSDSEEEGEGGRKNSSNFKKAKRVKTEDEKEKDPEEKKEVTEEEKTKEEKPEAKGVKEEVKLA

[1] = tested on: HDAC from HeLa cell extract; test: Irreversible HDAC inhibition, HeLa nuclear extracts; format: biochemical
Procedure: FIG. 1. HDAC-C1A irreversible activity. A. […] inhibitory activity of HDAC-C1A was tested using HeLa nuclear extracts and compared to the negative (reversible) control HDAC-C1B. B Growth inhibitory effect of the different compounds in HCT-116 cells at indicated time and compared to growth inhibitory after 72 hours of incubation.
as §1

SH-SY5Y = test: Growth inhibition, SRB assay, 72 hours; format: cell-based; settings: SH-SY5Y neuroblastoma
A2780 cells = test: Growth inhibition (GI50); format: cell-based, human
HCT116 cells [2] = test: Growth inhibition (GI50); format: cell-based, human
From the text: Different treatment scheduling are shown. […] The results are mean of n=6.

[3] = Stability in PBS at acidic pH, HPLC-UV; format: physicochemical; settings: down to pH 2, cell free, 10 μM in PBS, 1 hour, 37° C.
Procedure: FIG. 3. Impact of the pH on the stability of HDAC-C1A. HDAC-C1A was incubated at 10 μM in PBS for 1 hour at 37° C. and the concentration was evaluated using HPLC-UV. The pH of PBS was adjusted using HCL.
(§2) The drug was stable after oral, parenteral and intravenous administration for 24 h (last time point examined). […] The Cma and AUC0-24h following i.p. injection (20 mg/kg) were 3.2 μg/mL and 11.2 μg/mL*h, respectively. […] The acid instability of HDAC-C1A could therefore be improved by enteric coating as a means to avoid breakdown in the stomach. […] HDAC-C1A was also tested in HCT116 human colon cancer xenograft model using a refined dose and scheduling. […] This dose was non-toxic (no reduction in body weight) (FIG. 5.D). The acetylated form of α-tubulin (biomarker of response to HDAC6 inhibition) could be observed after 14 days of treatment and could be detected as early as 6 hours after the 1st injection (FIG. 5.E.). The acetylated form of Histone 3 (biomarker of response of class I histones) could be observed as early as 2 hours after the 1st injection and remain after 14 days of treatment (FIG. 5.E).

[4] = tested on: A2780 human ovarian cancer xenograft; test: Anti-tumour activity in A2780 xenograft model; format: in vivo
Procedure: FIG. 5. Anti-tumour activity of HDAC-C1A in A2780 (A & B) and HCT116 (C & D) xenograft models (Tumours volumes relative to tumour volume at day 1 (A & C) and corresponding body weight (relative to body weight at day 1) (B & D)). E. Biomarkers screening at early time points following a single injection of HDAC-C1A in HCT116 xenograft at 40 mg/kg compared to a continuous 14 days treatment at the indicated dose. Tumours were excised 6 hours following the last injection.
as §2

HCT116 xenograft = test: Differential gene expression, affymetrix human genome array; format: in vivo, mice
A549 cells = test: Impact of BSO (GSH depletion) on growth inhibition, SRB assay; format: cell-based; settings: 10 μM BSO for 24 hours
[5] = tested on: CHO cells deficient in DNA repair; test: Growth inhibition in cell lines deficient in DNA repair machinery; format: cell-based
RAD51 = RAD51 mRNA and protein expression; format: cell-based; settings: in vitro and in vivo
HCT116 cells [6] = test: Phospho-AKT levels by western blotting; format: cell-based, human; settings: 10 μM
MCF7 = test: Phospho-AKT levels by western blotting; format: cell-based; settings: breast cancer cell line MCF7
Ishikawa = test: Phospho-AKT levels by western blotting; format: cell-based; settings: endometrial cancer cell line Ishikawa (PTEN-null)
[7] = tested on: HCT116 human colon cancer xenograft
[8] = 14 days, 40 mg/kg every other day
[9] = homologous recombination repair
[10] = HDAC-C1A 20 mg/kg bid combined with API-2 1 mg/kg/d
[11] = HDAC-C1A combined with BEZ-235 20 mg/kg/day, given 8 hours apart

HDAC6, sequence (Q9UBN7 whole entry): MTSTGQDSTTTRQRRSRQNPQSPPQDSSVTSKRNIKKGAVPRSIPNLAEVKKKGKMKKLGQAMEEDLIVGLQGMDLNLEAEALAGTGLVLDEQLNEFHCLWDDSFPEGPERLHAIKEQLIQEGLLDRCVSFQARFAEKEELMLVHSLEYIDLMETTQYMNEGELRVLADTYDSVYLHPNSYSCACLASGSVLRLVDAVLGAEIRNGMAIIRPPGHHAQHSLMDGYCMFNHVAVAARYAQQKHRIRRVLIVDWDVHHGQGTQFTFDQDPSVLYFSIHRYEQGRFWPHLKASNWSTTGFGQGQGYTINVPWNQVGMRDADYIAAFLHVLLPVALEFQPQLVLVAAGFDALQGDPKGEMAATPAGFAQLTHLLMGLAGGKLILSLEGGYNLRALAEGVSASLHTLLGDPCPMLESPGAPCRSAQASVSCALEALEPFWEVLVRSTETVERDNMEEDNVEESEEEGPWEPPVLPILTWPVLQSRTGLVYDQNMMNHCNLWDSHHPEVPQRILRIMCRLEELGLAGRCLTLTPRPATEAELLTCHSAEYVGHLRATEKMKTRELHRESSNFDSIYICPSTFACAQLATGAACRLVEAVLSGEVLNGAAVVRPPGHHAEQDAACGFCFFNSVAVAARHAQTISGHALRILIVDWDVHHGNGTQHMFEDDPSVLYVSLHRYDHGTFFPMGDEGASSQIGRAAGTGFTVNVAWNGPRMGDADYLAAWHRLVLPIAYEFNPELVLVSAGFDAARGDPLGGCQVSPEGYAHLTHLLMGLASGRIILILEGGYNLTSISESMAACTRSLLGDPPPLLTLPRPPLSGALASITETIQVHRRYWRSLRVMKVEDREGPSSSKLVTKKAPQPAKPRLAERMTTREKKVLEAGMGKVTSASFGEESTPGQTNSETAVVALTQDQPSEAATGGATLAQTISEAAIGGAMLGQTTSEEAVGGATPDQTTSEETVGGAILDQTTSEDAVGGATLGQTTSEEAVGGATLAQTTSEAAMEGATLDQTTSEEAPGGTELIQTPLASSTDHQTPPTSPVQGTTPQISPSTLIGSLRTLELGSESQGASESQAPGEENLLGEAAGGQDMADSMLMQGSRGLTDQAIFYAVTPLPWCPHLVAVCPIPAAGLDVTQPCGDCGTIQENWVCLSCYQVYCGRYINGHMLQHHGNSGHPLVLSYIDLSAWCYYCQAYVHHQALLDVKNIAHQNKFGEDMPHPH

For `CC(/C=C/C(=O)NO)=C\c1ccc(NS(=O)(=O)c2ccc(N(CCCl)CCCl)cc2)cc1` [HDAC-C1A], the “IC50 for HDAC6” value (HDAC6) was 0.063 mg/L, the “fold more specific for HDAC6 compared with HDAC1” value (HDAC1) was “approximately 17 fold” and the “mode of HDAC inhibition” value [1] was “irreversibly inhibited”. The GI50 (SH-SY5Y) was 0.09 mg/L (≈ 0.181 µM), the GI50 (A2780 cells) was 0.7 µM and the GI50 (HCT116 cells [2]) was 3.7 µM. The “stability across acidic pH” value [3] was “relative acidic degradation”, the body weight loss ([4]; 80 mg/kg/day, in some animals, at 7 days, treatment stopped) was 10% and the “Tumour Growth Delay (TGD2x)” value ([4]; i.p. 80 mg/kg/day) was 3 ± 0.3 days. For the same compound, the “Tumour Growth Inhibition (TGI) compared with vehicle” value ([4]; i.p. 80 mg/kg/day) was 74%, the “number of genes deregulated (of 20 000 tested)” value (HCT116 xenograft; 24 hours, 40 mg/kg) was 20 genes and the “number of genes up-regulated” value (HCT116 xenograft; 24 hours, 40 mg/kg) was 17. The ALDH1 up-regulation (HCT116 xenograft; 14 days of treatment) was ~1.6 fold, the “Gasdermin D up-regulation” value (HCT116 xenograft; 14 days of treatment) was ~1.5 fold and the “K AZ up-regulation” value (HCT116 xenograft; 14 days of treatment) was ~1.5 fold. For the same compound, the KLK3 down-regulation (HCT116 xenograft; 14 days of treatment) was ~1.5 fold, the RAD23B up-regulation (HCT116 xenograft; 14 days of treatment) was ~1.8 fold and the SYNDECAN-2 down-regulation (HCT116 xenograft; 14 days of treatment) was ~1.7 fold. For the same compound, the UNG up-regulation (HCT116 xenograft; 14 days of treatment) was ~1.7 fold, the “number of genes deregulated by at least 1.5 fold” value (HCT116 xenograft; [8]) was 132 genes and the “share of genes deregulated” value (HCT116 xenograft; [8]) was < 0.7%. For the same compound, the “mRNA levels of PTEN vs vehicle” value (HCT116 xenograft; after 1 and 14 days) was “not altered”, the “impact of BSO on growth inhibition (GI50 ratio)” value (A549 cells) was “No difference” and the “sensitivity (GI50 ratio) of cells deficient in XRCC3 vs proficient” value [5, 9] was “as sensitive as the parental proficient cell lines”. The “sensitivity (GI50 ratio, fold) of cells deficient in XRCC2 vs proficient” value [5, 9] was “as sensitive as the parental proficient cell lines”, the “sensitivity (GI50 ratio, fold) of cells deficient in XRCC5 vs proficient” value ([5]; non homologous end joining) was “as sensitive as the parental proficient cell lines” and the “sensitivity (GI50 ratio) of cells deficient in ERCC1 vs proficient” value ([5]; nucleotide excision repair) was “as sensitive as the parental proficient cell lines”. For the same compound, the “sensitivity of cells deficient in XPB vs proficient” value ([5]; nucleotide excision repair) was “as sensitive as the parental proficient cell lines”, the “RAD51 mRNA and protein expression” value (RAD51) was “did not increase” and the “fold increase of P-AKT” value (HCT116 cells [6]; 4 h) was 1.5 fold. The “fold increase of P-AKT” value (HCT116 cells [6]; 24 h) was 2 fold, the P-AKT levels (MCF7) was “increased” and the P-AKT levels increased (Ishikawa) was “not”. For the same compound, the TGD2x [7, 10] was 2.7 ± 1.3 days, the “TGI compared with vehicle” value [7, 10] was 54% and the TGD2x ([7]; HDAC-C1A alone 20 mg/kg/day) was 3.8 ± 1.3 days. It also gave a TGI ([7]; HDAC-C1A alone 20 mg/kg/day) of 69%, a TGD2x [7, 11] of 8.2 ± 1.3 days and a TGI [7, 11] of 74%. The TGI ([7]; HDAC-C1A combined with BEZ-235, given 30 minutes apart) was 115%, the TGD2x ([7]; i.p. 20 mg/kg b.i.d.) was 5.7 ± 1.4 days and the “TGI compared with vehicle” value ([7]; i.p. 20 mg/kg b.i.d.) was 78%. For the same compound, the “toxicity (body weight)” value ([7]; i.p. 20 mg/kg b.i.d.) was “non-toxic”.
